Data taken from the supplement of paper PMC10307832.

Legend:
Experiment in all cases: relative viability (nuclei count vs DMSO), 5 days (fraction); higher = more cells survive
Darinaparsin + Olaparib = compound: C[As](C)SC[C@H](NC(=O)CC[C@H](N)C(=O)O)C(=O)NCC(=O)O [Darinaparsin] + O=C(c1cc(Cc2n[nH]c(=O)c3ccccc23)ccc1F)N1CCN(C(=O)C2CC2)CC1 [Olaparib] (partner 8 µM)
Method in brief: (§1)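 Five library-drug doses in √10 steps were combined with a fixed anchor-drug dose, or a single drug was given alone, by pin tool to lung cancer cell lines in 1536-well plates the day after seeding. Nuclei were stained and counted after 5 days. Relative viability is the nuclei count in treated wells over that in vehicle wells, taken as the median of duplicate plates.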

AZ628 + Lapatinib = compound: CC1=C(C=C(C=C1)NC(=O)C2=CC(=CC=C2)C(C)(C)C#N)NC3=CC4=C(C=C3)N=CN(C4=O)C [AZ628] + CS(=O)(=O)CCNCc1ccc(-c2ccc3ncnc(Nc4ccc(OCc5cccc(F)c5)c(Cl)c4)c3c2)o1 [Lapatinib] (partner 2 µM)
Method in brief: as §1

[1] = compound: C[As](C)SC[C@H](NC(=O)CC[C@H](N)C(=O)O)C(=O)NCC(=O)O [Darinaparsin] + N=C(N)NC(=N)NCCc1ccccc1 [Phenformin] (partner 250 µM)
Method in brief: as §1

QS11 + Phenformin = compound: C1CC2=C(C1)C=C(C=C2)OC3=NC(=C4C(=N3)N(C=N4)CC5=CC=C(C=C5)C6=CC=CC=C6)N[C@@H](CC7=CC=CC=C7)CO [QS11] + N=C(N)NC(=N)NCCc1ccccc1 [Phenformin] (partner 250 µM)
Method in brief: as §1

Row | Cell Line | relative viability (Darinaparsin + Olaparib; first compound 0.08 µM) | relative viability (Darinaparsin + Olaparib; first compound 0.8 µM) | relative viability (Darinaparsin + Olaparib; first compound 2.53 µM) | relative viability (Darinaparsin + Olaparib; first compound 8 µM) | relative viability (AZ628 + Lapatinib; first compound 0.08 µM) | relative viability (AZ628 + Lapatinib; first compound 0.253 µM) | relative viability (AZ628 + Lapatinib; first compound 0.8 µM) | relative viability (AZ628 + Lapatinib; first compound 2.53 µM) | relative viability (AZ628 + Lapatinib; first compound 8 µM) | relative viability ([1]; first compound 0.08 µM) | relative viability ([1]; first compound 0.8 µM) | relative viability ([1]; first compound 2.53 µM) | relative viability ([1]; first compound 8 µM) | relative viability (QS11 + Phenformin; first compound 0.08 µM) | relative viability (QS11 + Phenformin; first compound 0.253 µM) | relative viability (QS11 + Phenformin; first compound 0.8 µM) | relative viability (QS11 + Phenformin; first compound 2.53 µM) | relative viability (QS11 + Phenformin; first compound 8 µM)
1 | LXF-289 | 1.46 | 1.09 | 0.841 | 1.03 | 0.882 | 0.884 | 0.79 | 0.843 | 0.58 | 0.556 | 0.523 | 0.471 | 0.556 | 0.468 | 0.509 | 0.486 | 0.495 | 0.541
2 | NCI-H727 | 0.388 | 0.561 | 0.726 | 0.612 | 0.484 | 0.472 | 0.415 | 0.326 | 0.296 | 0.405 | 0.416 | 0.569 | 0.475 | 0.88 | 0.442 | 0.459 | 0.557 | 0.372
3 | NCI-H322M | 0.763 | 0.763 | 0.713 | 0.726 | 0.674 | 0.737 | 0.747 | 0.646 | 0.657 | 0.886 | 0.795 | 0.663 | 0.795 | 0.784 | 0.824 | 0.803 | 0.877 | 1.06
4 | NCI-H2126 | 0.986 | 0.886 | 0.84 | 1.12 | 0.758 | 0.857 | 0.834 | 0.752 | 0.89 | 0.521 | 0.511 | 0.524 | 0.556 | 0.542 | 0.505 | 0.552 | 0.561 | 0.541
5 | NCI-H2405 | 0.992 | 0.865 | 0.841 | 0.914 | 0.733 | 0.59 | 0.487 | 0.487 | 0.515 | 0.407 | 0.377 | 0.415 | 0.405 | 0.361 | 0.443 | 0.372 | 0.45 | 0.399
6 | NCI-H1944 | 0.458 | 0.44 | 0.363 | 0.404 | 0.855 | 0.892 | 0.831 | 0.747 | 0.701 | 0.217 | 0.207 | 0.216 | 0.192 | 0.202 | 0.204 |  | 0.196 | 0.145
7 | NCI-H520 | 0.378 | 0.321 | 0.354 | 0.313 | 0.901 | 0.857 | 0.743 | 0.778 | 0.766 | 0.669 | 0.481 | 0.453 | 0.625 | 0.476 | 0.687 | 0.607 | 0.489 | 0.574
8 | NCI-H2228 | 0.746 | 0.74 | 0.693 | 0.944 | 1.11 | 1.13 | 0.784 | 0.9 | 1.17 | 0.254 | 0.281 | 0.328 | 0.387 | 0.259 | 0.325 | 0.407 | 0.479 | 0.452
9 | EKVX | 0.878 | 0.697 | 0.801 | 0.735 | 0.232 | 0.206 | 0.216 | 0.219 | 0.257 | 0.244 | 0.24 | 0.228 | 0.243 | 0.228 | 0.224 |  | 0.228 | 0.255
